Reference: US10307411B2, “Use of cotinine in treating or preventing neurogenesis deficits and enhancing neurogenesis” (Department of Veterans Affairs, priority 2014, dated 2019)

Key:
[1] = test system: inflammation genes in the hippocampus of stressed mice; assay: Inflammatory response and Autoimmunity PCR array (RT-PCR) on hippocampus of mice subjected to forced swimming stress; format: in vivo
Source text: (§1) Two-month-old male C57BU6J mice (The Jackson Laboratory, Bar Harbor, Me.), weighing 25-30 g were maintained on a 12-hours light/dark cycle (light on at 07:00) with ad libitum access to food and water and maintained at a regulated temperature of 25±1″C. Upon arrival mice were group-housed and acclimated for 7 days before any intervention.
(§2) Mice were randomly divided into three groups as follows: group 1 controls that were not exposed to stress (NES) and treated with vehicle (phosphate buffered saline, PBS); group 2 controls subjected to forced swimming stress (FSB) and treated with vehicle; group 3 subjected to forced swimming stress and treated with cotinine (FSA).
(§3) Cotinine ((5S)-1-methyl-5-(3-pyridyl) pyrrolidin-2-one; Sigma-Aldrich Corporation, St. Louis, Mo., USA) solutions were prepared by dissolving the powdered compound in sterile phosphate buffered saline (PBS), and vehicle (PBS). Mice were treated with vehicle or cotinine (5 mg/kg) via gavage. […] All investigators were blind to treatment groups and doses were chosen based on previously studies (Zeitlin, et al., (2012) Cotinine enhances the extinction of contextual fear memory and reduces anxiety after fear conditioning. Behav Brain Res, 228, 284-293.). Treatments were administered for 7 days before the induction of stress. For all animals, treatment continued from the onset of treatment until euthanasia.
(§4) To induce chronic stress, mice were subjected to repetitive forced swimming (FS) for six consecutive days, for six minutes each day, as described previously (Furukawa-Hibi, et al., (2011) The hydrophobic dipeptide Leu-lie inhibits immobility induced by repeated forced swimming via the induction of BDNF. Behav Brain Res. 2011 Jul. 7; 220(2):271-280). Each mouse was placed in an inescapable transparent plastic cylinder (40 centimeters (cm) high×20 cm in diameter) filled with water to a depth of 30 cm, for six minutes. Water temperature was maintained at 24-25° C. and water was changed between all trials. In all cases, following exposure, animals were retrieved, dried with a hand towel and returned to their home cages. Mice assigned to NES control group were removed from the animal housing facility and taken to the behavioral testing room during the same period of time than FS mice, but remained in their home cages during the FS period. In all experiments, no mice needed assistance to avoid drowning.
(§5) Following behavioral experimentation, euthanasia was performed via cervical dislocation under anesthesia with isofluorane (4% induction, 2% maintenance) by investigators not assigned to prior work with the mice blinded to the treatments. Whole brains were collected and immediately stored frozen at −80° C.
(§6) The hippocampi were dissected on ice and placed into RNAlater tubes (Life Technologies; Thermo Fisher Scientific, Waltham, Mass.). RNAlater is a proprietary solution which protects RNA in tissue samples from degradation to allow for analysis at a later date. RNase free conditions were created and maintained throughout the procedure by washing labware in a 0.1% DEPC solution followed by rinsing with RNase free water. Total RNA extraction and purification was performed using RNeasy Lipid Tissue Extraction Kit (Qiagen N.V., Venlon NL). Sample homogenization was performed using Kontes Pellet Pestle Cordless Motor and/or 20 gauge needle and syringe. Samples were extracted using a Qiazol/Chloroform extraction. The samples were purified on an RNeasy spin column using multiple washes. An on-column DNase incubation was performed in order to remove contaminating DNA. The entire extraction and purification step was performed twice to remove all contaminating DNA for samples ran on the neurogenesis arrays. Samples were eluted in RNase free water.
(§7) Nucleic acid quantification was performed on the RNA, to determine how many microliters of sample to add to the cDNA reaction, as the reaction requires a specific concentration of RNA to achieve optimal results. […]

[2] = test system: neurogenesis genes in the hippocampus of mice; assay: Neurogenesis and neural stem cell RT-PCR array on hippocampus of mice subjected to forced swimming stress; format: in vivo
Source text: as §1, §2, §3, §4, §5, §6, §7

VEGF = assay: Western blot of VEGF in hippocampus of mice subjected to repetitive forced swim stress; format: in vivo
Protocol: Mice pretreated with 5 mg/kg of cotinine (Cot 5) or vehicle (Veh) were exposed to repetitive 6-min forced swim (FS) daily for 6 days (a) to under continuous treatment. Following testing, mice were euthanized and the levels of VEGF and β-tubulin in the hippocampus were analyzed by Western blot. The plots represent VEGF immunoreactivity (IR) values in the hippocampus of mice. […] Mice pretreated with 5 mg/kg of cotinine (Cot 5) or vehicle (Veh) were exposed to repetitive 6-min forced swim (FS) daily for 6 days (a) to under continuous treatment or controls, not subjected to the forced swim (NES). Following resting, mice were euthanized and the levels of VEGF and β-tubulin in the hippocampus were analyzed by Western blot. The plots represent VEGF immunoreactivity (IR) values in the hippocampus of mice. […] The Western blot analysis investigated the expression of VEGF (FS mice: n=8-1O/group; NES mice: n=4-5/group). […] Brain tissues were then disrupted by sonication in cold lyses buffer (Cell Signaling Technology, Danver, Mass., USA) containing a complete protease inhibitor cocktail (Roche Molecular Biochemicals). After sonication, brain extracts were incubated on ice for 30 min and centrifuged at 20,000×g for 30 min at 4° C. Protein concentrations of supernatants were measured using the Bio-Rad protein assay (Bio-Rad, Hercules, Calif., USA). Equal amounts of protein were separated by gradient (4-20%), SOS-PAGE, then transferred to nitrocellulose membranes (BA83 0.2 μM; Bio-Rad). The membranes were blocked in TBS with 0.1% Tween 20 (TBST) containing 5% dry skim milk for 1 h. Membranes were incubated with primary antibodies in TBST overnight at 4° C. and with secondary antibodies for 1 h at room temperature (RT) in a blocking buffer. […] Images were acquired using an Odyssey Infrared Imaging System (Ll-COR Biosciences) and analyzed using the NIH Image J software. To analyze the group and treatment effects, differences between group means in the behavioral analyses were assessed using two-way analysis of variance (ANOVA) and post hoc Tukey test. […]

[3] = clinical studies, doses up to 1.5 mg cotinine base/kg; cited from earlier work
[4] = administered in the drinking water for 78 weeks; rats initiated with FANFT; cited from earlier work
aromatase = target: T1, aromatase (Homo sapiens, UniProt P11511); conditions: in vitro; cited from earlier work
T1 sequence (P11511 1-503): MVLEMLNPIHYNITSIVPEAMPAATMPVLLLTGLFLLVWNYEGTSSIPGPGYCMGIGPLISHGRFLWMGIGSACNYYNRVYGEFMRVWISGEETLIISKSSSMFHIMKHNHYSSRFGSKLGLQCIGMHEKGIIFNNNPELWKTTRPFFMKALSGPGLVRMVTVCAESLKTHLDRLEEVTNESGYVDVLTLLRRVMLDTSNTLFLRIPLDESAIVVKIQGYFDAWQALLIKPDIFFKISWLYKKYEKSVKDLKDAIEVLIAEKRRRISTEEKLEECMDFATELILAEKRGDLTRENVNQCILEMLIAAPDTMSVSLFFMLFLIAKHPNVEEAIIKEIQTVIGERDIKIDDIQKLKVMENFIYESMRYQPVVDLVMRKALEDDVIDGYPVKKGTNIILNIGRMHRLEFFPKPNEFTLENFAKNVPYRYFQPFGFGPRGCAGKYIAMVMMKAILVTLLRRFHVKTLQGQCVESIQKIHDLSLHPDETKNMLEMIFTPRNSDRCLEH

17-ketosteroid reductase = conditions: in vitro; cited from earlier work
monocytes = conditions: α7nAChR-dependent; cited from earlier work
[5] = hippocampus, forced swimming stress, cotinine 5 mg/kg gavage vs stressed vehicle-treated (FSB)
[6] = stressed mouse, cotinine vs vehicle
[7] = stressed mice treated with cotinine compared to stressed mice treated with vehicle

With `CN1C(=O)CC[C@H]1c1cccnc1` [cotinine, (5S)-1-methyl-5-(3-pyridyl) pyrrolidin-2-one] the “number of inflammation genes differentially expressed” value ([1]; cut off of two-fold difference, stressed mouse treated with cotinine versus stressed mouse treated with vehicle) was 10 genes, the “Fos expression decreased by” value ([1]; forced swimming + cotinine compared to forced swimming + vehicle) was 2.5 fold and the “Complement component 3 (C3) decreased by” value ([1]; forced swimming + cotinine compared to stressed mouse treated with vehicle) was 2.9 fold. For the same compound, the “C3 (Complement component 3) Fold regulation comparing to FSB” value [1, 5] was −2.89 fold, the “Ccl1 (Chemokine (C-C motif) ligand 1) Fold regulation comparing to FSB” value [1, 5] was 2.21 fold and the “Ccl2 (Chemokine (C-C motif) ligand 2) Fold regulation comparing to FSB” value [1, 5] was 2.46 fold. The “Ccl3 (Chemokine (C-C motif) ligand 3) Fold regulation comparing to FSB” value [1, 5] was −4.00 fold, the “Ccr2 (Chemokine (C-C motif) receptor 2) Fold regulation comparing to FSB” value [1, 5] was −2.87 fold and the “Ccr4 (Chemokine (C-C motif) receptor 4) Fold regulation comparing to FSB” value [1, 5] was 2.96 fold. For the same compound, the “Fos (FBJ osteosarcoma oncogene) Fold regulation comparing to FSB” value [1, 5] was −2.55 fold, the “Nos2 (Nitric oxide synthase 2, inducible) Fold regulation comparing to FSB” value [1, 5] was −3.93 fold and the “Tlr1 (Toll-like receptor 1) Fold regulation comparing to FSB” value [1, 5] was 2.32 fold. For the same compound, the “Tnfsf14 (Tumor necrosis factor (ligand) superfamily, member 14) Fold regulation comparing to FSB” value [1, 5] was 6.18 fold, the “inflammation genes analyzed that were down-regulated” value ([1]; stressed mice treated with cotinine vs stressed vehicle, hippocampus) was 61% and the “Ccl3 change (down regulated by cotinine)” value [1, 6] was 2.8 fold. For the same compound, the “Ccr2 change (down regulated by cotinine)” value [1, 6] was 4.0 fold, the “decrease in share of down-regulated neurogenesis genes” value ([2]; FSA versus stressed vehicle-treated, each compared to non-stressed mice) was 17% and the neurogenesis genes down-regulated ([2]; forced swimming stress + cotinine (FSA) compared to mice not exposed to stress) was 56%. The “neurogenesis genes analyzed that were up regulated” value ([2]; hippocampi from cotinine-treated stressed mice compared to vehicle-treated stressed mice) was 67%, the “VEGFa mRNA expression, RT-PCR assay” value ([2]; hippocampus of cotinine-treated FS mice compared to vehicle-treated FS mice (p<0.01)) was “up-regulated” and the “number of neurogenesis genes with differential regulation” value ([2]; results from all three comparisons, 1.3-fold cut-off with opposite effect by cotinine) was 15 genes. For the same compound, the “Errb2 expression up regulation” value ([2]; stressed mice treated with cotinine compared to stress control mice) was 1.3 fold, the “Artn expression up regulation” value [2, 7] was 1.2 fold and the “EGF expression up regulation” value [2, 7] was 1.5 fold. The “Gdnf expression up regulation” value [2, 7] was 2.0 fold, the “VEGFa expression up regulation” value [2, 7] was 1.3 fold and the “VEGF protein expression in the hippocampus vs NES mice” value (VEGF; FS mice, cotinine 5 mg/kg, compared with non-stressed mice) was “not significantly different”. For the same compound, the “VEGF protein expression in the hippocampus vs vehicle-treated FS mice” value (VEGF; FS mice, cotinine 5 mg/kg, normalized to β-tubulin) was “significantly higher levels of VEGF expression”, the “VEGF protein expression in the absence of stress” value (VEGF; non-stressed mice, cotinine vs vehicle, t=0.2910, p=0.7795) was “no changes in VEGF expression” and the “recall of a short list” value [3] was “did not affected the recall”. The “recall on the long list on a verbal recall task” value [3] was “impaired recall”, the “carcinogenicity / promotion of urinary bladder tumors” value [4] was “neither carcinogenic nor promoted urinary bladder tumors” and the inhibition of aromatase (aromatase) was “inhibiting”. For the same compound, the “inhibition of 17-ketosteroid reductase” value (17-ketosteroid reductase) was “inhibiting” and the “inflammatory response to gram-negative bacteria (expression of TNF-α, IL-1β and IL-6)” value (monocytes) was “reduced the inflammatory response”.
